This assay concerns abdominal adhesions in a rat model of surgical adhesions. Put plainly: rat model of surgical (abdominal) adhesions, small intestine rubbed with latex glove. Format: in vivo, Wistar rats. The procedure:
The objective of the current study was to compare the efficacy of enteral saline, enteral Formula A, lavage tranexamic acid (TXA), and enteral Formula A with lavage TXA to prevent abdominal adhesions in a rat model of surgical adhesions.
The tests were conducted on Wistar rats from Harlan/Charles River. The sample size included 40 animals in total, with a target weight of 350-400 g (males). The rat was selected as the test model since it is accepted by regulatory authorities as a rodent animal model for toxicity studies, and high quality animals are readily available and a large amount of background pathology data is available in this species. […] The model reproducibility provides the ability to observe directional proof of concept data within normal experimental conditions.
Four groups were measured; Group 1 served as the control wherein saline (Baxter, 0.9% sodium chloride IV solution bags) was administered via enteral administration; subjects in Group 2 were exposed to an enteral administration of Formula A; subjects in Group 3 were exposed to a lavage of tranexamic acid (TXA) and saline; and subjects in Group 4 were given enteral administration of Formula A and a lavage of tranexamic acid (TXA) and saline.
Prior to the experiment, the animals were fasted and prepared for the adhesion model according to the schedule: (A) Evening Prior to Experiment—Begin Fasting; (B) Day 1: Hour−2.0—Administration of enteral test article (oral gavage); (C) Day 1: Hour 0.0−Induction of anesthesia with ketamine with a dose of 75 mg/kg, I.M; and (D) Day 1: Hour 0+10 min—induction of surgical adhesion model.
A small skin incision in the midline of the abdomen was made for isolation of small intestine. A length of the small intestine was rubbed gently with a latex glove 10 times. Animals were given abdominal lavage test article immediately after the small intestine was rubbed. Laparotomy was sutured and the animal allowed to recover. During surgery, the animals were kept warm (37° C.) at all times by a temperature therapy pad and vital signs (systemic blood pressure or respiratory rate, body temperature) were monitored at all times during experiment. Leg motion and toe reflexes were monitored for anesthetic level. On day 28—The animals were euthanized and the number and size/thickness of adhesions were quantified.

The mark [1] stands for this setting: vs enteral saline Group 1, 2 side T-test.

“Also recorded” adds a separate entry of the source.

On to `NC[C@H]1CC[C@H](C(=O)O)CC1` [tranexamic acid (TXA), tranexamic acid], for which, for the setting “Wistar rats, day 28, enteral = 4 ml oral gavage 2 hr pre surgery, lavage = 4 ml TXA in saline right after rubbing, saline control 4.10”, the “mean number of adhesions per animal” value is recorded as 0.67. Where the note is “day 28, score 0-4: 4 = no adhesions, 3 ≤1 mm, 2 >1 mm ≤2 mm, 1 >2 mm, 0 = kinked intestine, saline control 1.60”, the “mean severity of adhesions (score)” value was 3.00. Besides, under setting [1], the “number of adhesions relative to the control (in words)” value is listed as “significantly less adhesions relative to the control; also recorded: significant relative to the control Group 1” and the “severity of adhesions relative to the control (in words)” value was “significantly smaller adhesions in terms of severity relative to the control; also recorded: significant relative to the control Group 1”.

For the origin of these results see patent US20220079903A1, “COMPOSITIONS AND METHODS FOR TREATING AND PREVENTING ADHESIONS AND ILUES” (Leading Biosciences, Inc., priority 2016, published 2022).
